Assay results as given in patent publication US20240293563A1, “GLP-1 RECEPTOR LIGAND MOIETY CONJUGATED OLIGONUCLEOTIDES AND USES THEREOF” (priority 2017, published 2024).
k = constrained ethyl (cEt); d = 2'-deoxy (DNA)

What was measured:
FOXO1 mRNA [1] = assay: FOXO1 mRNA in cultured mouse primary islets of Langerhans treated with ASO; format: cell-based; conditions: for Islet FOXO1 mRNA levels relative to control (RPLP0): percent of untreated cells, 1 μM ASO 3 hrs every 24 hrs
Experimental: Pancreatic islets were isolated by collagenase digestion from pancreas collected from exsanguinated 12 to 15 weeks old female C57BL/6Crl mice. Islets were maintained in tissue culture until use. Islet were dissociated into single cells by shaking in media containing a low extracellular calcium concentration. 10 to 20 intact or dissociated islets were plated on plastic Petri Dishes and treated with 10 μM of antisense oligonucleotides for approximately 24 hrs. After the treatment period cells were harvested, RNA isolated, adjusted to total RNA content, as measured by RIBOGREEN®. MALAT1 or FOXO1 mRNA levels measured by quantitative real-time PCR. […] All data was normalized to the mRNA level of the house keeping gene (RPLP0) in the same sample, measured using a primer probe set with forward sequence […] NO: 71), reverse sequence […] NO: 72) and probe sequence […] NO: 73). Pancreatic islets were isolated by collagenase digestion from pancreas collected from euthanized 12 to 15 weeks old female B6.Cg-Lepob/J mice and maintained in tissue culture until use. 150 intact islets were placed in plastic Petri Dishes and treated with 1 μM of antisense oligonucleotides for 3 hrs every 24 hrs and harvested after approximately 24 hrs, 48 hrs or 96 hrs total treatment time respectively. After the treatment period, islets were harvested, and half of the islets were used to measure FOXO1 mRNA levels as described herein (Example 9). Half of the islets were homogenized in M-PER protein extraction reagent (Thermo Scientific) containing a protease inhibitor cocktail (Complete Mini and phosphoSTOP, Roche Diagnostics). The protein content of lysates were quantitated using BCA Assay Reagent (Pierce). […] For the anti-FoxO1 antibody, the secondary antibody was HRP-conjugated polyclonal goat anti-Rabbit P0448 (DAKO) and for the anti-α-tubulin antibody, the secondary antibody was HRP-conjugated polyclonal goat anti-mouse P0447 (DAKO). Enhanced chemiluminescence reagents (Pierce) were used for detection.

FOXO1 mRNA [2] = assay: FOXO1 mRNA in isolated islets and liver 72 hrs after single subcutaneous dose; format: in vivo, mouse; conditions: single subcutaneous injection 0.01 or 1 μmol/kg
Experimental: (§1) Pancreatic islets were isolated by collagenase digestion from pancreas collected from exsanguinated 12 to 15 weeks old female C57BL/6Crl mice. Islets were maintained in tissue culture until use. Islet were dissociated into single cells by shaking in media containing a low extracellular calcium concentration. 10 to 20 intact or dissociated islets were plated on plastic Petri Dishes and treated with 10 μM of antisense oligonucleotides for approximately 24 hrs. After the treatment period cells were harvested, RNA isolated, adjusted to total RNA content, as measured by RIBOGREEN®. MALAT1 or FOXO1 mRNA levels measured by quantitative real-time PCR. Mouse Malat1 mRNA levels was measured using gene expression assay Mm01227912_s1 from Applied Biosystems, whereas mouse FOXO1 mRNA levels was measured using a primer probe set with forward sequence […] All data was normalized to the mRNA level of the house keeping gene (RPLP0) in the same sample, measured using a primer probe set with forward sequence […]
(§2) All animals were sacrificed 72 hrs after last dose.

FOXO1 mRNA [3] = assay: FOXO1 mRNA in isolated islets and liver after 6 weeks repeated administration to ob/ob mice; format: in vivo, mouse; conditions: male ob/ob mice; 0.1 μmol/kg once weekly for 6 weeks; 120 hrs after last dose
Experimental: Pancreatic islets were isolated by collagenase digestion from pancreas collected from exsanguinated 12 to 15 weeks old female C57BL/6Crl mice. Islets were maintained in tissue culture until use. Islet were dissociated into single cells by shaking in media containing a low extracellular calcium concentration. 10 to 20 intact or dissociated islets were plated on plastic Petri Dishes and treated with 10 μM of antisense oligonucleotides for approximately 24 hrs. After the treatment period cells were harvested, RNA isolated, adjusted to total RNA content, as measured by RIBOGREEN®. MALAT1 or FOXO1 mRNA levels measured by quantitative real-time PCR. […] All data was normalized to the mRNA level of the house keeping gene (RPLP0) in the same sample, measured using a primer probe set with forward sequence […] NO: 71), reverse sequence […] NO: 72) and probe sequence […] NO: 73). Male ob/ob mice (B6.V-Lepob/OlaHsd, Harlan) were assigned to five treatment groups receiving either vehicle, 0.1 μmol/kg ISIS 776102, 0.1 μmol/kg ION 913195, 0.03 ION 913193 or 1 μmol/kg ION 913193. All animals were treated once weekly for 6 weeks. Approximately 120 hrs after last dose all animals were sacrificed, liver samples collected and pancreatic islets isolated, as described herein (Example 9), for mRNA analysis. FOXO1 mRNA levels were quantified as described herein (Example 9) and mRNA levels expressed relative to housekeeping gene in each sample (RPLP0).

MALAT-1 = assay: Dose-dependent reduction of MALAT-1 expression in LVX-GLP1R cells; format: cell-based, human; conditions: approximately 24 hours; read-out: IC50 (MALAT-1 expression in GLP1R HEK cells)
Experimental: HEK cells stably expressing FLAG-tagged GLP1R were generated by infecting HEK 293 cells with FLAG-tagged GLP1R containing lentivirus produced by transfection of 293T cells with pLVX-IRES-Puro (Clontech Laboratories Inc., Mountainview, CA) harboring the FLAG-GLP1R insert. Infected cells were selected with puromycin (2 μg/ml) and then analyzed for receptor expression by western blot and immunofluorescence. Cultured GLP1R cells were plated at a density of 10,000 cells per well and treated with 0.3, 1, 3, 9, 27, 82, 247, 741, 2,222, 6,667, and 20,000 nM modified oligonucleotide for approximately 24 hours. After the treatment period, total RNA was prepared using an RNeasy mini kit (Qiagen, Valencia, CA, USA) and qRT-PCR was performed using the primer probe set RTS2739 (forward sequence: […] (SEQ ID NO: 74), reverse sequence: […] (SEQ ID NO: 75), probe sequence: […] (SEQ ID NO: 76). Briefly, ˜50 ng total RNA in 5 d water was mixed with 0.3 d primer probe sets containing forward and reverse primers (10 μM of each) and fluorescently labeled probe (3 μM), 0.3 W RT enzyme mix (Qiagen), 4.4 d RNase-free water, and 10 d of 2×PCR reaction buffer in a 20 d reaction. Reverse transcription was performed at 48° C. for 10 min, 40 cycles of PCR were conducted at 94° C. for 20 s, and 60° C. for 20 s within each cycle, using StepOne Plus RT-PCR system (Applied Biosystems, Phoenix, AZ, USA). The mRNA levels were normalized to the amount of total RNA present in each reaction as determined by Ribogreen assay (Life Technologies) and normalized to the saline control (100% expression).

MALAT1 [4] = assay: Effect of peptide composition and attachment point on peptide-conjugated ASO activity in LVX-GLP1R cells; format: cell-based, human; conditions: 7 doses in a 4-fold dilution series, MALAT1 RNA
MALAT1 mRNA [5] = assay: Dose dependent antisense inhibition of MALAT1 in hGLP1R-HEK cells; format: cell-based, human; conditions: approximately 24 hrs, qRT-PCR normalized to RPLP0
Experimental: The hGLP1R-HEK cell line was generated by expressing hGLP1R in Flp-IN™ 293 cells. Cultured hGLP1R-HEK cells were seeded at a density 30,000 cells per well in 96 well plates and saline, 100 nM or 10 μM of unconjugated parent antisense oligonucleotide ISIS 556089 targeted to MALAT1 described above or ISIS 776102 (nucleobase sequence: […]) (SEQ ID NO: 64) targeted to FOXO1, or corresponding GLP-1 peptide conjugated antisense oligonucleotides (ISIS 816385 targeted to MALAT1 described above or ION 913193 targeted to FOXO1 described above) for approximately 24 hrs. After the treatment period, cells were harvested, the mRNA isolated and adjusted to total RNA content as measured by nanadrop UV-Vis spectrophotometer. MALAT1 or FOXO1 mRNA levels were measured by quantitative real-time PCR and normalized to the mRNA levels of the house keeping gene (RPLP0) in the same samples. Human MALAT1 mRNA levels were measured using gene expression assays HS00273907 and FOXO1 mRNA levels were measured using assay Hs01054576 (Applied Biosystems). The mRNA level of the house keeping gene RPLP0 was measured using a primer probe set with forward sequence […] CAT […] (SEQ ID NO: 66), reverse sequence […] (SEQ ID NO: 67). […]
After the treatment period cells were harvested, mRNA isolated and MALAT1 mRNA levels measured by quantitative real-time PCR using the primer probe set as described herein (Example 7). […]

MALAT1 mRNA [6] = assay: Dose dependent antisense inhibition of MALAT1 in WT HEK293 cells; format: cell-based, human; conditions: approximately 24 hrs, qRT-PCR normalized to RPLP0
MALAT1 mRNA [7] = assay: MALAT1 mRNA in isolated islets and liver 72 hrs after single subcutaneous dose; format: in vivo, mouse; conditions: single subcutaneous injection 0.01, 0.1 or 1 μmol/kg
Experimental: as §1, §2

MALAT1 [8] = assay: In situ hybridization of MALAT1 (QuantiGene ViewRNA) in mouse tissues after intravenous ASO; format: in vivo
Description: NO: 63) or a GLP-1 conjugated MALAT1 ASO (ISIS 816385) described in Example 1 at concentrations of 1.8. 0.6, or 0.2 μmol/kg. […] MALAT1 expression was detected using the QuantiGene ViewRNA tissue assay (Affymetrix, cat. No. QVT0011). Species-specific MALAT1 probes were purchased from Affymetrix (cat. No. VB-11110-01/mouse; VF1-13963/monkey). In brief, mouse tissues were fixed in 10% neutral-buffered formalin and embedded into paraffin and sectioned into […]. After deparaffinization, the tissue slides were boiled in Affymetrix pretreatment solution for 10-30 minutes followed by treatment with protease at 40° C. for 10 to 40 minutes depending on tissue. The MALAT1 RNA probe was used at a 1:40 dilution and was incubated with sample at 40° C. for 120 minutes. After washing, the MALAT1 RNA/probe complex was hybridized with preamplifier, amplifier, and AP-oligonucleotides at 40° C. for 25, 15, and 15 minutes, respectively. After removal of free AP oligonucleotide by washing in PBS, the slide was incubated with Fast Red substrate at room temperature for 30 minutes. The tissue images were acquired using an Aperio scanner. Hung et al., 2013 Nuc Acid Ther. 369-78. To determine a dose response of a GLP-1 conjugated MALAT1 ASO (ISIS 816385) described in Example 1 on pancreatic MALAT1 expression, male C57BL/6 mice fed a chow diet received a single intravenous injection of ISIS 816385 or an unconjugated MALAT1 ASO (ISIS 556089) described above at concentrations of 0.2, 0.06, and 0.02 μmol/kg. MALAT1 expression was detected using the QuantiGene ViewRNA tissue assay described above.

MALAT1 [9] = assay: MALAT1 expression in pancreas by in situ hybridization (RNAscope); format: in vivo, mouse; conditions: 2 μmol/kg; subcutaneous or intravenous (ISIS 556089 subcutaneous only); 72 hrs after last dose
Description: Female C57BL/6Crl mice were assigned to five treatment groups. […] All animals were sacrificed approximately 72 hrs after last dose, and pancreas harvested for ex vivo analysis of uptake of antisense oligonucleotides by immunohistochemistry.
Female C57BL/6Crl mice were assigned to five treatment groups as described herein (Example 11) All animals were sacrificed approximately 72 hrs after last dose, and pancreas harvested for ex vivo analysis of MALAT1 expression by in situ hybridization.
The in situ mRNA amplification and labelling process was performed on the Ventana Discovery ULTRA, an Automated ISH platform(Ventana Medical System, Inc) using the RNAscope® VS Assay based on Advanced Cell Diagnostics (ACD). Customized probes were obtained from ACD for the detection of MALAT1 mRNA, and various parameters were tested to optimize the novel RNAscope method for ISH. The signal was amplified using multiple steps, followed by labeled probes and detected using the RNAscope® 2.5 VS Reagent Kit-RED. Stained slides were analyzed under a standard bright-field microscope.

MALAT1 [10] = assay: MALAT1 in situ hybridization in beta islet cells after i.v. GLP-1 ASO conjugates with various linkers; format: in vivo, mouse; conditions: male C57BL/6 mice; intravenous 0.6 μmol/kg/week once a week for three weeks; 72 hours after final injection

Row | Substance | reduction in FOXO1 mRNA (FOXO1 mRNA [1]; mouse islets, 1 μM ASO, summary of Table 2) | Islet FOXO1 mRNA levels relative to control (RPLP0) (FOXO1 mRNA [1]; 24 hours) [%] | Islet FOXO1 mRNA levels relative to control (RPLP0) (FOXO1 mRNA [1]; 48 hours) [%] | Islet FOXO1 mRNA levels relative to control (RPLP0) (FOXO1 mRNA [1]; 96 hours) [%] | antisense inhibition of FOXO1 in islet of Langerhans (FOXO1 mRNA [2]) | antisense inhibition of FOXO1 in islet of Langerhans (FOXO1 mRNA [3]) | IC50 (MALAT-1) [nM] | IC50 (MALAT1 [4]) [nM] | IC50 (MALAT1 mRNA [5]) [nM] | IC50 (MALAT1 mRNA [6]) [nM] | antisense inhibition of MALAT1 in islet of Langerhans (MALAT1 mRNA [7]) | effect in liver (MALAT1 in situ hybridization) (MALAT1 [8]; Study 2, single intravenous injection, any of the doses 0.2, 0.06, 0.02 μmol/kg) | MALAT1 expression in pancreatic beta islet cells (in situ hybridization) (MALAT1 [8]; male C57BL/6 mice, 2 intravenous injections of 1.8, 0.6 or 0.2 μmol/kg, 72 hours after final injection) | MALAT1 expression in the pancreatic islet of Langerhans (MALAT1 [9]) | MALAT1 expression in beta islet cells compared to saline control (in situ hybridization) (MALAT1 [10])
1 | ISIS 776102: unconjugated parent antisense oligonucleotide targeted to FOXO1, nucleobase sequence TCTTCTTAAAATACCC (SEQ ID NO: 64) (listed as DNA, further chemistry not given here) [reference compound] | marginal reduction | 82 | 86 | 92 | No significant antisense inhibition | No significant antisense inhibition |  |  |  |  |  |  |  |  | 
2 | ISIS 556089: unconjugated parent 3-10-3 cEt ASO targeting murine MALAT1, nucleobase sequence GCATTCTAATAGCAGC (SEQ ID NO: 63) (sugars from the 5' end k3 d10 k3, backbone and methylation of C not given here) [reference compound] |  |  |  |  |  |  | 3970 | 3820 | 870 | 740 | No significant antisense inhibition | No observable effect | not | not reduced | not
